Measured values from US20140143910A1, “COMPOSITION THAT AUGMENTS PLANT DISEASE RESISTANCE AND/OR BRANCHING” (Riken, priority 2011, published 2014).

Tested on: PR1 gene
Experiment: PR1 gene expression by real-time PCR in rosette leaves of wild-type strain and bil3 mutant, treated or untreated with brassinolide
Assay type: in vivo, Arabidopsis thaliana
Details: BL-treated bil3 mutant (BIL3 gene-overexpressing), compared with the wild-type strain; FIG. 7
Protocol: Individuals of the wild-type strain and the bil3 mutant grown in the same way as in Example 1 were treated or untreated with brassinolide (BL), one type of BR, to prepare samples. Total RNA was extracted from the rosette leaf of each strain using RNeasy Plant Mini Kit (Qiagen N.V.). Next, cDNA was synthesized from the extracted total RNA using PrimeScript First-Strand cDNA Synthesis Kit (Takara Bio Inc.). Specific procedures for the total RNA extraction and the cDNA synthesis followed the protocol included in each kit. Subsequently, the expression of the PR1 gene was analyzed by real-time PCR with the synthesized cDNA as a template using primers PR1-RT-F represented by SEQ ID NO: 46 and PR1-RT-R represented by SEQ ID NO: 47, SYBR Premix EX Taq kit (Takara Bio Inc.) and a real-time PCR apparatus Thermal Cycler Dice (Takara Bio Inc.).

SMILES: CC(C)[C@H](C)[C@@H](O)[C@H](O)[C@@H](C)[C@H]1CC[C@H]2[C@@H]3COC(=O)[C@H]4C[C@H](O)[C@H](O)C[C@]4(C)[C@H]3CC[C@]12C [BL, brassinolide]
- expression level of the PR1 gene, relative value with the BL-untreated wild-type strain as 1: approximately 40 times
